{"source": "patent US20260048046A1", "about": "“METHOD FOR IMPROVING GROWTH PERFORMANCE IN FEEDLOT CATTLE” (Elanco US Inc., priority 2022, published 2026)", "tested_on": "beef feedlot cattle", "assay": "56-d study: growth performance", "assay_type": "in vivo", "parameters": "Average daily dry matter (DMI) / Average daily dry matter (DMI), difference from control: unit not given here", "details": "for Average daily dry matter (DMI) / Average daily gain (ADG) / Gain:feed, ADG:DMI / Final BW: 56 d treatment, steers, LS mean; for Final BW: initial weight as covariate", "method": "This example describes a randomized complete block study that evaluated LUB dose (0, 1.5, 3.5, and 5.5 mg kg^−1 dry matter) during the last 56 d of the feeding period on live weight, carcass weight, and associated ratios in beef feedlot cattle. Carcass characteristics, mobility, and health were also evaluated. All cattle received monensin and tylosin throughout the study.\nA randomized complete block design was used to evaluate the effects of LUB on calculated growth performance of 2,880 British and Continental European crossbred steers typical for U.S. feedlots. Bos indicus breeding was limited to less than ⅛. The study evaluated four\nLUB doses: 0 (control, CON), 1.5, 3.5, and 5.5 mg·kg^−1 DM. There were 12 blocks, each block containing four replicate pens that started LUB feeding on the same date. Steers were randomized within each block of four pens with 60 steers per pen, resulting in a total of 720 steers enrolled in each treatment. LUB feeding started on Jun. 24, 2018, Jul. 1, 2018, and Jul. 15, 2018, four blocks on each date.\nBeginning no later than approximately d −70, animals were fed a diet containing Rumensin (monensin 46.3 mg·kg^−1 100% DM basis; Elanco, Greenfield, IN, USA) and Tylan (tylosin 8.9 mg·kg^−1 100% DM basis; Elanco) ad libitum. Cattle in the LUB treatments were switched from the basal finishing ration to the finishing ration containing the appropriate concentrations of LUB Type A premix at the start of the treatment period (d −57). Table 5 lists the composition and the formulated nutrient composition of the finishing diet. The diet was designed to meet or exceed the minimum nutrient requirements cited in Nutrient Requirements of Beef Cattle (NASEM, 2016). LUB was delivered to the cattle using a 1% LUB Type A premix prepared and delivered by Elanco (Clinton Laboratories, Clinton, IN, USA), and the ration was prepared on-site at the research facility. The 1% Type A premix was delivered into the ration by flushing the 1% Type A premix through a micro-ingredient machine (Micro Technologies, Amarillo, TX) with water, which was included at approximately 27 kg of the “as-fed” ration, for each 3,629 kg batch. The 1% Type A premix was included in the finishing ration at 0, 0.0154%, 0.0353%, or 0.0551% (100% DM) to provide CON, 1.5, 3.5, or 5.5 mg·kg^−1 LUB (100% DM). The on-site feed mixers used to mix (stationary horizontal paddle mixer [Cactus Varied Industries, Amarillo, TX, USA]) and deliver (Roto-Mix 490-14 and Roto-Mix 620-16, Roto-Mix LLC, Dodge City, KS) the Type C feed were qualified to confirm that the ration could be mixed homogeneously before feeding medicated feed. Cattle were fed in order of CON, 1.5, 3.5, or 5.5 mg·kg^−1 doses of LUB. Prior to mixing the CON batches, the mixer was flushed with appropriate amount of non-medicated feed or other cattle feed to assure no carryover of test compound. Feed was issued three times each day at approximately the same time each day. Bunk calls were made at the time of first feeding and amount of feed issued for the third feeding was adjusted based on daily bunk calls according to site procedures. The feeding goal was to have slick bunks prior to the first feeding and approximately ⅓ of the cattle at the bunk, ⅓ of the cattle moving to the bunk, and ⅓ of the cattle not moving to the bunk at time of first feeding. Water was available ad libitum throughout the study. The weight of feed issued was recorded and electronic feed records were provided for data analysis.\nAnimals were weighed individually at the time of randomization (approximately d −69 to d −66) and this weight was used to exclude steers with extreme BW from the trial. All other BW (unshrunk) were collected by pen and used for calculation of growth performance. Scheduled pen weights were taken prior to feed delivery and collected on d −59 (2 d before treatment start, which was considered the treatment start weight) and d 0 (1 d after the end of treatment, which was considered the treatment end weight). […]", "key": {"[1]": {"details": "steers fed LUB (doses pooled), 56 d"}}, "data": [{"compound": "CC(C)(Cc1ccc(Oc2ncccc2C#N)cc1)NC[C@H](O)COc1ccccc1-c1cccs1", "note": "[LUB, 2-{4-[2-({(2S)-2-Hydroxy-3-[2-(2-thienyl)phenoxy]propyl}amino)-2-methylpropyl]phenoxy}nicotinonitrile]", "values": [{"measurement": "Average daily dry matter (DMI), difference from control", "setting": "1.5 mg·kg^−1 vs. control, 56 d", "result": 0.2}, {"measurement": "Average daily dry matter (DMI), percent change from Control", "setting": "1.5 mg·kg^−1 vs. control, 56 d", "result": 2.0, "unit": "%"}, {"measurement": "Average daily gain (ADG), difference from control", "setting": "1.5 mg·kg^−1 vs. control, 56 d", "result": 0.19, "unit": "kg"}, {"measurement": "Average daily gain (ADG), percent change from Control", "setting": "1.5 mg·kg^−1 vs. control, 56 d", "result": 11.3, "unit": "%"}, {"measurement": "Final BW, difference from control", "setting": "1.5 mg·kg^−1 vs. control, 56 d", "result": 11.6, "unit": "kg"}, {"measurement": "Final BW, percent change from Control", "setting": "1.5 mg·kg^−1 vs. control, 56 d", "result": 1.7, "unit": "%"}, {"measurement": "Gain:feed, ADG:DMI, difference from control", "setting": "1.5 mg·kg^−1 vs. control, 56 d", "result": 0.015}, {"measurement": "Gain:feed, ADG:DMI, percent change from Control", "setting": "1.5 mg·kg^−1 vs. control, 56 d", "result": 9.0, "unit": "%"}, {"measurement": "Average daily dry matter (DMI), difference from control", "setting": "3.5 mg·kg^−1 vs. control, 56 d", "result": 0.3}, {"measurement": "Average daily dry matter (DMI), percent change from Control", "setting": "3.5 mg·kg^−1 vs. control, 56 d", "result": 3.0, "unit": "%"}, {"measurement": "Average daily gain (ADG), difference from control", "setting": "3.5 mg·kg^−1 vs. control, 56 d", "result": 0.26, "unit": "kg"}, {"measurement": "Average daily gain (ADG), percent change from Control", "setting": "3.5 mg·kg^−1 vs. control, 56 d", "result": 15.5, "unit": "%"}, {"measurement": "Final BW, difference from control", "setting": "3.5 mg·kg^−1 vs. control, 56 d", "result": 15.7, "unit": "kg"}, {"measurement": "Final BW, percent change from Control", "setting": "3.5 mg·kg^−1 vs. control, 56 d", "result": 2.4, "unit": "%"}, {"measurement": "Gain:feed, ADG:DMI, difference from control", "setting": "3.5 mg·kg^−1 vs. control, 56 d", "result": 0.028}, {"measurement": "Gain:feed, ADG:DMI, percent change from Control", "setting": "3.5 mg·kg^−1 vs. control, 56 d", "result": 12.0, "unit": "%"}, {"measurement": "Average daily dry matter (DMI), difference from control", "setting": "5.5 mg·kg^−1 vs. control, 56 d", "result": 0.2}, {"measurement": "Average daily dry matter (DMI), percent change from Control", "setting": "5.5 mg·kg^−1 vs. control, 56 d", "result": 2.0, "unit": "%"}, {"measurement": "Average daily gain (ADG), difference from control", "setting": "5.5 mg·kg^−1 vs. control, 56 d", "result": 0.24, "unit": "kg"}, {"measurement": "Average daily gain (ADG), percent change from Control", "setting": "5.5 mg·kg^−1 vs. control, 56 d", "result": 14.3, "unit": "%"}, {"measurement": "Final BW, difference from control", "setting": "5.5 mg·kg^−1 vs. control, 56 d", "result": 14.3, "unit": "kg"}, {"measurement": "Final BW, percent change from Control", "setting": "5.5 mg·kg^−1 vs. control, 56 d", "result": 2.1, "unit": "%"}, {"measurement": "Gain:feed, ADG:DMI, difference from control", "setting": "5.5 mg·kg^−1 vs. control, 56 d", "result": 0.019}, {"measurement": "Gain:feed, ADG:DMI, percent change from Control", "setting": "5.5 mg·kg^−1 vs. control, 56 d", "result": 11.4, "unit": "%"}, {"measurement": "Average daily dry matter (DMI)", "setting": "LUB 1.5 mg·kg^−1 DM", "result": 10.3}, {"measurement": "Average daily gain (ADG)", "setting": "LUB 1.5 mg·kg^−1 DM", "result": 1.87, "unit": "kg"}, {"measurement": "Gain:feed, ADG:DMI", "setting": "LUB 1.5 mg·kg^−1 DM", "result": 0.182}, {"measurement": "Final BW", "setting": "LUB 1.5 mg·kg^−1 DM", "result": 679.0, "unit": "kg"}, {"measurement": "Average daily dry matter (DMI)", "setting": "LUB 3.5 mg·kg^−1 DM", "result": 10.4}, {"measurement": "Average daily gain (ADG)", "setting": "LUB 3.5 mg·kg^−1 DM", "result": 1.94, "unit": "kg"}, {"measurement": "Gain:feed, ADG:DMI", "setting": "LUB 3.5 mg·kg^−1 DM", "result": 0.187}, {"measurement": "Final BW", "setting": "LUB 3.5 mg·kg^−1 DM", "result": 683.1, "unit": "kg"}, {"measurement": "Average daily dry matter (DMI)", "setting": "LUB 5.5 mg·kg^−1 DM", "result": 10.3}, {"measurement": "Average daily gain (ADG)", "setting": "LUB 5.5 mg·kg^−1 DM", "result": 1.92, "unit": "kg"}, {"measurement": "Gain:feed, ADG:DMI", "setting": "LUB 5.5 mg·kg^−1 DM", "result": 0.186}, {"measurement": "Final BW", "setting": "LUB 5.5 mg·kg^−1 DM", "result": 681.7, "unit": "kg"}, {"measurement": "Average daily gain", "setting": "[1]", "result": 1.91, "unit": "kg"}, {"measurement": "Average daily gain greater than control", "setting": "[1]", "result": 13.7, "unit": "%"}, {"measurement": "Gain efficiency", "setting": "[1]", "result": 0.185}, {"measurement": "Gain efficiency greater than control", "setting": "[1]", "result": 10.8, "unit": "%"}, {"measurement": "Daily dry matter intake greater than control", "setting": "steers that received LUB (doses pooled), 56 d", "result": 2.3, "unit": "%"}]}]}
